Measured values as given in patent US9555038B2, “Heterocycle-substituted tetracyclic compounds and methods of use thereof for the treatment of viral diseases” (Merck Sharp & Dohme Corp., priority 2013, dated 2017).
Where two headings read alike, the source gives them in different places.

Experiments:
[1] = test system: HCV replicon 1AY93H; assay: Cell-based HCV Replicon Assay A, replicon 1AY93H
Outline: (§1)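 Replicon cells were seeded at 2000 cells/well with test compound in 10 serial dilutions, starting at 333.3 nM to 1.667 nM, in 0.5% DMSO and 5% FBS. On day 3, cells were washed and lysed, and replicon RNA was quantified by multiplex TaqMan RT-PCR normalised to cyclophilin.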

[2] = test system: HCV replicon 2B; assay: Cell-based HCV Replicon Assay A, replicon 2B
Outline: as §1

[3] = test system: HCV replicon 1A; assay: Cell-based HCV Replicon Assay A, replicon 1A
Outline: as §1

[4] = test system: HCV replicon 1AQ30D; assay: Cell-based HCV Replicon Assay B, replicon 1AQ30D
Outline: (§2)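 Replicon cells seeded in 5% FBS; compounds added 24 h later, then 3 days' incubation. Replicon RNA quantified by real-time RT-PCR with genotype-specific primers/probes (NS5B amplicon for 1b). EC50 = concentration raising CT by 1 over projected baseline.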

[5] = test system: HCV replicon 1B; assay: Cell-based HCV Replicon Assay B, replicon 1B
Outline: as §2

[6] = read-out: 1A Y93H IC50, replicon 1AY93H
[7] = Hepatitis C virus, read-out: 1A Q30D IC50 (nM), replicon 1AQ30D
[8] = read-out: 1A Q30D IC50, replicon 1AQ30D
[9] = Hepatitis C virus, read-out: 1A Y93H IC50 (nM), replicon 1AY93H
[10] = Hepatitis C virus, read-out: 2B IC50 (nM), replicon 2B
[11] = replicon 1AY93H, read-out: 1A Y93H IC50
[12] = replicon 1AQ30D, read-out: 1A Q30D IC50

| Structure (SMILES) | IC50 [1, 6] | IC50 ([2]; read-out: 2B IC50, replicon 2B) | IC50 ([3]; Hepatitis C virus) | IC50 [4, 7] | IC50 [5] | IC50 [3] | IC50 [4, 8] | IC50 ([5]; Hepatitis C virus) | IC50 [1, 9] | IC50 [2, 10] | IC50 [1, 11] | IC50 ([2]; replicon 2B, read-out: 2B IC50) | IC50 [4, 12] |
| --- | --- | --- | --- | --- | --- | --- | --- | --- | --- | --- | --- | --- | --- |
| COC(=O)N[C@H](C(=O)N1CCC[C@H]1c1ncc(-c2cc(F)c3c(c2)OC(c2cnc(C4(C)CC4)s2)n2c-3cc3cc(-c4cnc([C@@H]5CCCN5C(=O)[C@@H](NC(=O)OC)C(C)C)[nH]4)ccc32)[nH]1)C(C)C (single isomer, unassigned) [Compound 511] | 0.049 nM | 0.095 nM | 9.7 pM | 0.847 nM | 8.7 pM | – | – | – | – | – | – | – | – |
| CCc1ncc(C2Oc3cc(-c4cnc([C@@H]5CCCN5C(=O)[C@@H](NC(=O)OC)C(C)C)[nH]4)cc(F)c3-c3cc4cc(-c5cnc([C@@H]6C[C@H]7C[C@H]7N6C(=O)C(NC(=O)OC)C6CCOC(C)(C)C6)[nH]5)ccc4n32)s1 (single isomer, unassigned) [Compound 95] | 0.0369 nM | 0.085 nM | – | – | 5 pM | 2.9 pM | 0.328 nM | – | – | – | – | – | – |
| COC(=O)NC(C(=O)N1[C@@H]2C[C@@H]2C[C@H]1c1ncc(-c2ccc3c(c2)cc2n3C(c3cnc(CC(C)C)s3)Oc3cc(-c4cnc([C@@H]5CCCN5C(=O)[C@@H](NC(=O)OC)C(C)C)[nH]4)cc(F)c3-2)[nH]1)C1C[C@@H](C)O[C@@H](C)C1 (single isomer, unassigned) [Compound 440] | 0.146 nM | 0.32 nM | 2.3 pM | – | – | – | 0.967 nM | 3.6 pM | – | – | – | – | – |
| COC(=O)NC(C(=O)N1CCC[C@H]1c1ncc(-c2ccc3c(c2)cc2n3C(c3cnc(C4CC4)s3)Oc3cc(-c4cnc([C@@H]5CCCN5C(=O)[C@@H](NC(=O)OC)C(C)C)[nH]4)cc(F)c3-2)[nH]1)C1CCOC(C)(C)C1 (single isomer, unassigned) [Compound 309] | 0.0218 nM | 0.003 nM | – | – | 6 pM | 1.8 pM | 0.047 nM | – | – | – | – | – | – |
| COC(=O)N[C@H](C(=O)N1CCC[C@H]1c1ncc(-c2cc(C)c3c(c2)OC(c2ncc(C4CC4)s2)n2c-3cc3cc(-c4cnc([C@@H]5CCCN5C(=O)[C@@H](NC(=O)OC)C5C[C@@H](C)O[C@@H](C)C5)[nH]4)ccc32)[nH]1)C(C)C (single isomer, unassigned) [Compound 47] | 1.12 nM | 0.058 nM | 2 pM | – | – | – | 2.19 nM | 3 pM | – | – | – | – | – |
| COC(=O)N[C@H](C(=O)N1CCC[C@H]1c1ncc(-c2cc(C)c3c(c2)OC(c2cnc(C4CCC4)s2)n2c-3cc3cc(-c4cnc([C@@H]5C[C@H]6C[C@H]6N5C(=O)[C@@H](NC(=O)OC)C(C)(C)F)[nH]4)ccc32)[nH]1)C(C)C (single isomer, unassigned) [Compound 210] | – | – | 4.9 pM | 0.216 nM | – | – | – | 2 pM | 0.0163 nM | 0.006 nM | – | – | – |
| COC(=O)N[C@H](C(=O)N1CCC[C@H]1c1ncc(-c2cc(F)c3c(c2)OC(c2cnc(-c4cnccn4)s2)n2c-3cc3cc(-c4cnc([C@@H]5CCCN5C(=O)[C@@H](NC(=O)OC)C(C)C)[nH]4)ccc32)[nH]1)C(C)C (mixture of isomers) [Compound 423] | – | – | 5.3 pM | 0.444 nM | – | – | – | 7 pM | 0.0526 nM | 0.041 nM | – | – | – |
| COC(=O)NC(C(=O)N1CCC[C@H]1c1ncc(-c2ccc3c(c2)cc2n3C(c3cnc(C4CCC4)s3)Oc3cc(-c4cnc([C@@H]5CCCN5C(=O)[C@@H](NC(=O)OC)C(C)C)[nH]4)cc(F)c3-2)[nH]1)C1C[C@@H](C)O[C@@H](C)C1 (single isomer, unassigned) [Compound 66] | 0.0021 nM | 0.003 nM | 2.3 pM | – | – | – | 0.018 nM | 2 pM | – | – | – | – | – |
| COC(=O)N[C@H](C(=O)N1CCC[C@H]1c1ncc(-c2cc(F)c3c(c2)OC(c2cnc(C4(C)CCCC4)s2)n2c-3cc3cc(-c4cnc([C@@H]5C[C@H]6C[C@H]6N5C(=O)[C@@H](NC(=O)OC)C(C)C)[nH]4)ccc32)[nH]1)C(C)C (single isomer, unassigned) [Compound 454] | 0.002 nM | – | 2.3 pM | 0.047 nM | – | – | – | 3.1 pM | – | 0.052 nM | – | – | – |
| COC(=O)NC(C(=O)N1CCC[C@H]1c1ncc(-c2ccc3c(c2)cc2n3C(c3cnc(C4CC4)s3)Oc3cc(-c4cnc([C@@H]5CCCN5C(=O)[C@@H](NC(=O)OC)C(C)C)[nH]4)cc(F)c3-2)[nH]1)C1C[C@@H](C)O[C@H](C)C1 (single isomer, unassigned) [Compound 304] | 0.123 nM | 0.048 nM | 2 pM | – | – | – | 0.954 nM | 3 pM | – | – | – | – | – |
| CCc1ncc(C2Oc3cc(-c4cnc([C@@H]5CCCN5C(=O)[C@@H](NC(=O)OC)C(C)C)[nH]4)cc(F)c3-c3cc4cc(-c5cnc([C@@H]6CCCN6C(=O)C(NC(=O)OC)C6C[C@@H](C)O[C@@H](C)C6)[nH]5)ccc4n32)s1 (single isomer, unassigned) [Compound 36] | 0.004 nM | 0.005 nM | – | 0.038 nM | – | 2.5 pM | – | 3 pM | – | – | – | – | – |
| COC(=O)N[C@H](C(=O)N1CCC[C@H]1c1ncc(-c2cc(F)c3c(c2)OC(c2cnc(C4CCCC4)s2)n2c-3cc3cc(-c4cnc([C@@H]5CCCN5C(=O)[C@@H](NC(=O)OC)C(C)C)[nH]4)ccc32)[nH]1)C(C)C (single isomer, unassigned) [Compound 25] | 0.0025 nM | 0.014 nM | 2.5 pM | 0.07 nM | – | – | – | 1 pM | – | – | – | – | – |
| COC(=O)NC(C(=O)N1CCCC1c1ncc(-c2cc(F)c3c(c2)OC(c2cnc(C4CCCC4)s2)n2c-3cc3cc(-c4cnc(C5CC6CC6N5C(=O)C(NC(=O)OC)C(C)C)[nH]4)ccc32)[nH]1)C(C)C (single isomer, unassigned) [Compound 319] | – | – | – | – | 3 pM | 2.5 pM | – | – | – | – | 0.0029 nM | 0.017 nM | 0.051 nM |
| COC(=O)N[C@H](C(=O)N1CCC[C@H]1c1ncc(-c2cc(F)c3c(c2)OC(c2cnc(CC(C)(C)C)s2)n2c-3cc3cc(-c4cnc([C@@H]5CCCN5C(=O)[C@@H](NC(=O)OC)C(C)C)[nH]4)ccc32)[nH]1)C(C)C (single isomer, unassigned) [Compound 522] | – | – | – | – | 1 pM | 1.4 pM | – | – | – | – | 0.011 nM | 0.015 nM | 0.163 nM |
| CCCOCc1ncc(C2Oc3cc(-c4cnc([C@@H]5CCCN5C(=O)[C@@H](NC(=O)OC)C(C)C)[nH]4)cc(F)c3-c3cc4cc(-c5cnc([C@@H]6CCCN6C(=O)[C@@H](NC(=O)OC)C(C)C)[nH]5)ccc4n32)s1 (single isomer, unassigned) [Compound 499] | 0.223 nM | 0.622 nM | – | – | 8.8 pM | 6.9 pM | 1.09 nM | – | – | – | – | – | – |
| COC(=O)NC(C(=O)N1CCC[C@H]1c1ncc(-c2ccc3c(c2)cc2n3C(c3cnc(C4CC4)s3)Oc3cc(-c4cnc([C@@H]5CCCN5C(=O)[C@@H](NC(=O)OC)C(C)C)[nH]4)cc(F)c3-2)[nH]1)C1CCOC(C)(C)C1 (single isomer, unassigned) [Compound 308] | 0.0757 nM | 0.047 nM | – | – | – | 4.1 pM | 0.496 nM | 3 pM | – | – | – | – | – |
| CCCc1ncc(C2Oc3cc(-c4cnc([C@@H]5CCCN5C(=O)[C@@H](NC(=O)OC)C(C)C)[nH]4)cc(F)c3-c3cc4cc(-c5cnc([C@@H]6CCCN6C(=O)C(NC(=O)OC)C6CCOC(C)(C)C6)[nH]5)ccc4n32)s1 (single isomer, unassigned) [Compound 61] | 0.012 nM | 0.006 nM | – | – | 1.7 pM | 3.3 pM | 0.07 nM | – | – | – | – | – | – |
| COC(=O)NC(C(=O)N1CCC[C@H]1c1ncc(-c2ccc3c(c2)cc2n3C(c3cnc(C4CCC4)s3)Oc3cc(-c4cnc([C@@H]5CCCN5C(=O)[C@@H](NC(=O)OC)C(C)C)[nH]4)cc(F)c3-2)[nH]1)C1C[C@@H](C)O[C@@H](C)C1 (single isomer, unassigned) [Compound 67] | 0.225 nM | 0.056 nM | – | – | 2 pM | 2 pM | 1.39 nM | – | – | – | – | – | – |
